# Entries after “also recorded” stand apart in the source; their conditions may differ.
# Assays:
# [1] = system: mouse embryonic stem cells derived cardiomyocytes (mES-CM); format: cell-based
# [2] = system: spinal-ligated rats; format: in vivo, rat
# Experimental: This study aimed to evaluate the analgesic indications of compound C using the Chung model of neuropathic pain in rats. This study was performed at PsychoGenics, Inc., headquartered at 765 Old Saw Mill River Road, Tarrytown, N.Y.
# Male Sprague Dawley rats (100-125 g) from Harlan (Indianapolis, Ind.) were used in the study. Upon receipt, rats were assigned unique identification numbers and were group housed with 3 rats per cage in polycarbonate cages with micro-isolator filter tops. All rats were examined, handled, and weighed prior to initiation of the study to assure adequate health and suitability. During the course of the study, 12/12 light/dark cycles were maintained, with lights on at 7:00 am EST. The room temperature was maintained between 20 and 23° C. with a relative humidity maintained around 50%. Chow and water were provided ad libitum for the duration of the study.
# All compounds were administered at a dose volume of 5 ml/kg, q.d. for 5 days (Days 17-21 post-surgery). Reference compound: Gabapentin (100 mg/kg; TRC, Lot No. 1-SWM-154-1) was dissolved in 0.5% carboxy-methylcellulose (CMC) in water and administered orally. Test Compound: Compound C (0.25, 0.625, and 1.25 mg/kg; Lot n/a) was dissolved in distilled H2O to a stock concentration (20×), divided into single-use aliquots, and frozen. On each test day, one aliquot was thawed and diluted 20-fold with PBS (pH 7.2), and used as stock for formulation of test doses. Compound C was administered subcutaneously.
# Under general anesthesia with continuous inhalation of isoflurane, surgery was performed with aseptic procedures in surgery unit. The skin at the area of the lower lumber and sacral level of the rat was shaved and disinfected with betadine and alcohol. Sterile ophthalmic ointment was used to lubricate the eyes. Animals were observed continuously for the level of anesthesia, testing for the animal's reflex response to tail or paw pinch and closely monitoring the animal's breathing. A heating pad was used to maintain body temperature at 37° C. while the animals recovered from anesthesia. A left longitudinal incision at the level next to the vertebral column was made and the left paraspinal muscles were separated. The transverse process of L6 was removed and nearby connective tissue cleaned to expose L5 and L6 spinal nerves. After the nerves were isolated and clearly visualized, 4-0 silk threads were used to ligate the left L5. The muscles were sutured with 4-0 silk threads and the wound closed by staples. All rats received an analgesic (buprenorphine, 0.05 mg/kg, s.c.) immediately before and 6 hours after surgery. Each rat was monitored until awake and moving freely around the recovery chamber. Animals were then single-housed for the duration of the study. Rats were allowed to recover for 2 weeks after surgery prior to testing.
# Withdrawal from a mechanical stimulus was measured by applying von Frey (VF) filaments of ascending bending force to the plantar surface of the hind paws (ipsilateral and contralateral). A positive response was defined as withdrawal from the von Frey filament. Confirmation of the paw withdrawal threshold (PWT) is tested by assessing the response to the filament above and below the withdrawal response.
# Rats were brought to the experimental room and allowed to habituate in the room for one hour prior to testing, and acclimated to the observation chambers for 15 minutes prior to taking PWT measurements.
# Pre-operative baseline testing: Prior to surgery, all rats were tested using the VF test.
# Post-operative baseline testing: On Day 14 following surgery, baseline responses were taken from all surgically-operated rats, and an ipsilateral PWT greater than 4.5 g was used as an exclusion criterion (13 rats excluded). Rats were subsequently balanced and assigned to treatment groups (n=10 per group) based on their post-op PWT values. […]
# [3] = baseline of group assigned to 100 mg/kg, mean ± SEM
SMILES,effect of positive control on action potential generation in cardiomyocytes [1],"ipsilateral paw withdrawal threshold compared to vehicle, chronic ([2]; 100 mg/kg orally q.d. 5 days, Day 21, all time points)","ipsilateral paw withdrawal threshold compared to vehicle, acute ([2]; 100 mg/kg orally, Day 17, data collapsed across 1 and 3 hour time points)","time dependence of effect on ipsilateral paw withdrawal threshold, chronic ([2]; 100 mg/kg orally, Day 21, 1 hr. versus 3 hr. post-administration)","ipsilateral paw withdrawal threshold (PWT), summary ([2]; 100 mg/kg, acute or 5-day administration, 1 and 3 hours following administration)","Contralateral paw withdrawal threshold prior to drug administration [2, 3]","Ipsilateral paw withdrawal threshold prior to drug administration [2, 3]","signs of sedation or toxicity ([2]; during pretreatment or testing, gabapentin 100 mg/kg orally, compound C 0.25, 0.625, 1.25 mg/kg subcutaneously)"
"NC1=N[C@H](O)[C@H]2[C@H]3O[C@]4(O)O[C@@H]([C@@H](O)[C@@]2(N1)[C@@H]4O)[C@]3(O)CO [TTX, Tetrodotoxin]",only the higher dose inhibited action potential generation; also recorded: quite evident; also recorded: significant action,,,,,,,
NCC1(CC(=O)O)CCCCC1 [Gabapentin],,significantly increased,significantly increased,significantly greater at 1 hr. compared to 3 hr. post-administration,significantly increased,48.70 ± 5.83,2.94 ± 0.29,not observed

# Source: patent US8399026B2, “Peptides isolated from spider venom, and uses thereof” (priority 2009, dated 2013)
